Source: ChEMBL document CHEMBL1159179, “Glucuronide prodrugs of hydroxy compounds for antibody directed enzyme prodrug therapy (ADEPT) : A phenol nitrogen mustard carbamate” (Bioorg Med Chem Lett, 1997)
pIC50: −log10 of the molar value.

How the values were obtained:
LoVo = experiment: Tested for the cytotoxic effect in LoVo cells, activity; type: functional, cell-based; details: Homo sapiens
[1] = Half life period was determined; type: ADME; details: rat

With `CN(C(=O)Oc1ccc(N(CCCl)CCCl)cc1)c1cc([N+](=O)[O-])ccc1O[C@@H]1O[C@@H](C(=O)O)[C@@H](O)[C@H](O)[C@@H]1O` the pIC50 (LoVo) was under 3.08 and the half-life [1] was 44 min.
